The source of these data is ChEMBL document CHEMBL1155285, “3D-QSAR CoMFA/CoMSIA models based on theoretical active conformers of HOE/BAY-793 analogs derived from HIV-1 protease inhibitor complexes” (Eur J Med Chem, 2009).

pIC50: −log10 of the molar value.

Chain of Protease (Q9YQ12 whole entry): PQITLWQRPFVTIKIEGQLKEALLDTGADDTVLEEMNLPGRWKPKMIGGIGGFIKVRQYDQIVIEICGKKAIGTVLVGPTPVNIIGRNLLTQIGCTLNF

This test addresses Protease (Human immunodeficiency virus 1, UniProt Q9YQ12). In words: Inhibition of HIV1 protease expressed in Escherichia coli K12 assessed as inhibition of enzyme activity.
As to `CC(C)[C@H](NC(=O)[C@H](Cc1cccc2ccccc12)CS(=O)(=O)C(C)(C)C)C(=O)NC[C@@H](O)[C@H](O)CNC(=O)[C@@H](NC(=O)[C@H](Cc1cccc2ccccc12)CS(=O)(=O)C(C)(C)C)C(C)C`, the pIC50 is 8.66. Under `CC(C)[C@H](NC(=O)[C@@H](O)Cc1ccccc1)C(=O)N[C@@H](Cc1ccccc1)[C@@H](O)[C@H](O)[C@H](Cc1ccccc1)NC(=O)[C@@H](NC(=O)[C@@H](O)Cc1ccccc1)C(C)C` stands 7.66; under `CC(C)(C)S(=O)(=O)C[C@@H](Cc1cccc2ccccc12)C(=O)N[C@@H](Cc1c[nH]cn1)C(=O)N[C@@H](Cc1ccccc1)[C@@H](O)[C@H](O)[C@H](Cc1ccccc1)NC(=O)[C@H](Cc1c[nH]cn1)NC(=O)[C@H](Cc1cccc2ccccc12)CS(=O)(=O)C(C)(C)C`, 6.47.

For the compound `CC(O)[C@H](NC(=O)[C@H](Cc1cccc2ccccc12)CS(=O)(=O)C(C)(C)C)C(=O)N[C@@H](Cc1ccccc1)[C@@H](O)[C@H](O)[C@H](Cc1ccccc1)NC(=O)[C@@H](NC(=O)[C@H](Cc1cccc2ccccc12)CS(=O)(=O)C(C)(C)C)C(C)O` (stereo partly specified), the pIC50 is 9.52. Then `CC(C)[C@H](NC(=O)[C@H](Cc1cccc2ccccc12)CS(=O)(=O)C(C)(C)C)C(=O)N[C@@H](CCc1ccncc1)[C@@H](O)[C@H](O)[C@H](CCc1ccncc1)NC(=O)[C@@H](NC(=O)[C@H](Cc1cccc2ccccc12)CS(=O)(=O)C(C)(C)C)C(C)C`, with 6.85; and `CC(C)[C@H](NC(=O)[C@H](Cc1cccc2ccccc12)CS(=O)(=O)C(C)(C)C)C(=O)N[C@@H](Cc1ccc(O)cc1)[C@@H](O)[C@H](O)[C@H](Cc1ccc(O)cc1)NC(=O)[C@H](NC(=O)[C@H](Cc1cccc2ccccc12)CS(=O)(=O)C(C)(C)C)C(C)C`, with 8.54. Then `CC(C)[C@H](NC(=O)N(C)Cc1ccccn1)C(=O)N[C@@H](Cc1ccccc1)C(O)C(O)[C@H](Cc1ccccc1)NC(=O)[C@@H](NC(=O)N(C)Cc1ccccn1)C(C)C` (single isomer, unassigned) [A-76928], with 7.82. Then `CC(C)(C)[C@H](NC(=O)[C@H](Cc1cccc2ccccc12)CS(=O)(=O)C(C)(C)C)C(=O)N[C@@H](Cc1ccccc1)[C@@H](O)[C@H](O)[C@H](Cc1ccccc1)NC(=O)[C@@H](NC(=O)[C@H](Cc1cccc2ccccc12)CS(=O)(=O)C(C)(C)C)C(C)(C)C`, with 9.30; and `CC(C)[C@H](NC(=O)[C@@H](N)Cc1ccccc1)C(=O)N[C@@H](Cc1ccccc1)[C@@H](O)[C@H](O)[C@H](Cc1ccccc1)NC(=O)[C@@H](NC(=O)[C@@H](N)Cc1ccccc1)C(C)C`, with 9.07; and `COc1ccc(C[C@H](CS(=O)(=O)C(C)(C)C)C(=O)N[C@H](C(=O)N[C@@H](Cc2ccccc2)[C@@H](O)[C@H](O)[C@H](Cc2ccccc2)NC(=O)[C@@H](NC(=O)[C@H](Cc2ccc(OC)cc2)CS(=O)(=O)C(C)(C)C)C(C)C)C(C)C)cc1`, with 9.47. Take `CCC[C@H](NC(=O)[C@H](Cc1cccc2ccccc12)CS(=O)(=O)C(C)(C)C)C(=O)N[C@@H](Cc1ccccc1)[C@@H](O)[C@H](O)[C@H](Cc1ccccc1)NC(=O)[C@H](CCC)NC(=O)[C@H](Cc1cccc2ccccc12)CS(=O)(=O)C(C)(C)C`: the pIC50 was 9.40. Consider `CC(C)[C@H](NC(=O)CCS(=O)(=O)c1ccncc1)C(=O)N[C@@H](Cc1ccccc1)[C@@H](O)[C@H](O)[C@H](Cc1ccccc1)NC(=O)[C@@H](NC(=O)CCS(=O)(=O)c1ccncc1)C(C)C`, for which the pIC50 is 8.40.

With `CC(C)[C@H](NC(=O)[C@H](Cc1cccc2ccccc12)CS(=O)(=O)C(C)(C)C)C(=O)N[C@@H](Cc1ccccc1)[C@@H](O)[C@H](O)[C@H](Cc1ccccc1)NC(=O)[C@@H](NC(=O)[C@H](Cc1cccc2ccccc12)CS(=O)(=O)C(C)(C)C)C(C)C`, the pIC50 was 9.52. Under `CCC(C)[C@H](NC(=O)[C@H](Cc1cccc2ccccc12)CS(=O)(=O)C(C)(C)C)C(=O)N[C@@H](Cc1ccccc1)[C@@H](O)[C@H](O)[C@H](Cc1ccccc1)NC(=O)[C@@H](NC(=O)[C@H](Cc1cccc2ccccc12)CS(=O)(=O)C(C)(C)C)C(C)CC` (stereo partly specified) stands 9.52; under `CC(C)(C)S(=O)(=O)C[C@@H](Cc1cccc2ccccc12)C(=O)N[C@@H](CC(N)=O)C(=O)N[C@@H](Cc1ccccc1)[C@@H](O)[C@H](O)[C@H](Cc1ccccc1)NC(=O)[C@H](CC(N)=O)NC(=O)[C@H](Cc1cccc2ccccc12)CS(=O)(=O)C(C)(C)C`, 7.00; under `CC(C)(C)S(=O)(=O)C[C@@H](Cc1cccc2ccccc12)C(=O)N[C@@H](CCC(=O)O)C(=O)N[C@@H](Cc1ccccc1)[C@@H](O)[C@H](O)[C@H](Cc1ccccc1)NC(=O)[C@H](CCC(=O)O)NC(=O)[C@H](Cc1cccc2ccccc12)CS(=O)(=O)C(C)(C)C`, 9.13.

For the compound `CC(C)[C@H](NC(=O)[C@H](Cc1ccccc1)NC(=O)[C@@H](O)C(O)[C@@H](O)C(O)O)C(=O)N[C@@H](Cc1ccccc1)[C@@H](O)[C@H](O)[C@H](Cc1ccccc1)NC(=O)[C@@H](NC(=O)[C@H](Cc1ccccc1)NC(=O)[C@@H](O)[C@@H](O)[C@@H](O)C(O)O)C(C)C` (single isomer, unassigned), the pIC50 is 9.05. Under `CC(C)(C)S(=O)(=O)C[C@@H](Cc1cccc2ccccc12)C(=O)N[C@H](C(=O)N[C@@H](Cc1ccccc1)[C@@H](O)[C@H](O)[C@H](Cc1ccccc1)NC(=O)[C@@H](NC(=O)[C@H](Cc1cccc2ccccc12)CS(=O)(=O)C(C)(C)C)C1CCCC1)C1CCCC1` stands 9.52; under `CC(C)[C@H](NC(=O)OCc1cccnc1)C(=O)N[C@@H](Cc1ccccc1)[C@@H](O)[C@H](O)[C@H](Cc1ccccc1)NC(=O)[C@@H](NC(=O)OCc1cccnc1)C(C)C`, 8.89; under `CC(C)[C@H](NC(=O)[C@H](Cc1cccc2ccccc12)NS(C)(=O)=O)C(=O)N[C@@H](Cc1ccccc1)[C@@H](O)[C@H](O)[C@H](Cc1ccccc1)NC(=O)[C@@H](NC(=O)[C@H](Cc1cccc2ccccc12)NS(C)(=O)=O)C(C)C`, 9.10. Then `CC(C)[C@H](NC(=O)[C@H](Cc1ccncc1)CS(=O)(=O)C(C)(C)C)C(=O)N[C@@H](Cc1ccccc1)[C@@H](O)[C@H](O)[C@H](Cc1ccccc1)NC(=O)[C@@H](NC(=O)[C@H](Cc1ccncc1)CS(=O)(=O)C(C)(C)C)C(C)C`, with 9.10; and `CC(C)[C@H](NC(=O)COc1cccc2ccccc12)C(=O)N[C@@H](Cc1ccccc1)[C@@H](O)[C@H](O)[C@H](Cc1ccccc1)NC(=O)[C@@H](NC(=O)COc1cccc2ccccc12)C(C)C`, with 7.42. For `CC(C)[C@H](NC(=O)CCS(=O)(=O)C(C)(C)C)C(=O)N[C@@H](Cc1ccccc1)[C@@H](O)[C@H](O)[C@H](Cc1ccccc1)NC(=O)[C@@H](NC(=O)CCS(=O)(=O)C(C)(C)C)C(C)C`, the pIC50 is 8.40.

In the case of `CCCCC[C@H](NC(=O)[C@@H](NC(=O)[C@H](Cc1cccc2ccccc12)CS(=O)(=O)C(C)(C)C)C(C)C)[C@@H](O)[C@H](O)[C@@H](CCCCC)NC(=O)[C@H](NC(=O)[C@H](Cc1cccc2ccccc12)CS(=O)(=O)C(C)(C)C)C(C)C`, the pIC50 was 9.00. Then `CC(C)[C@H](NC(=O)[C@H](Cc1ccccc1)CS(=O)(=O)C(C)(C)C)C(=O)N[C@@H](Cc1ccccc1)[C@@H](O)[C@H](O)[C@H](Cc1ccccc1)NC(=O)[C@@H](NC(=O)[C@H](Cc1ccccc1)CS(=O)(=O)C(C)(C)C)C(C)C`, with 8.49; and `CC(C)(C)S(=O)(=O)C[C@@H](Cc1cccc2ccccc12)C(=O)N[C@H](C(=O)N[C@@H](Cc1ccccc1)[C@@H](O)[C@H](O)[C@H](Cc1ccccc1)NC(=O)[C@@H](NC(=O)[C@H](Cc1cccc2ccccc12)CS(=O)(=O)C(C)(C)C)C1CCCCC1)C1CCCCC1`, with 8.77; and `COc1ccc(C[C@H](NC(=O)[C@@H](NC(=O)[C@H](Cc2cccc3ccccc23)CS(=O)(=O)C(C)(C)C)C(C)C)[C@@H](O)[C@H](O)[C@H](Cc2ccc(OC)cc2OC)NC(=O)[C@@H](NC(=O)[C@H](Cc2cccc3ccccc23)CS(=O)(=O)C(C)(C)C)C(C)C)c(OC)c1`, with 7.74.

`CC(C)[C@H](NC(=O)[C@@H](CC(=O)O)Cc1ccccc1)C(=O)N[C@@H](Cc1ccccc1)[C@@H](O)[C@H](O)[C@H](Cc1ccccc1)NC(=O)[C@@H](NC(=O)[C@@H](CC(=O)O)Cc1ccccc1)C(C)C`: the pIC50 is 8.85. Under `CC(C)[C@H](NC(=O)OCc1ccccc1)C(=O)N[C@@H](Cc1ccccc1)[C@@H](O)[C@H](O)[C@H](Cc1ccccc1)NC(=O)[C@@H](NC(=O)OCc1ccccc1)C(C)C` stands 8.70. Turning to `CC(C)[C@H](NC(=O)[C@H](Cc1cccc2ccccc12)CS(=O)(=O)C(C)(C)C)C(=O)N[C@@H](CCc1ccccc1)[C@@H](O)[C@H](O)[C@H](CCc1ccccc1)NC(=O)[C@@H](NC(=O)[C@H](Cc1cccc2ccccc12)CS(=O)(=O)C(C)(C)C)C(C)C`, the pIC50 was 6.44. Under `CC(C)[C@H](NC(=O)[C@H](Cc1cccc2ccccc12)CS(=O)(=O)C(C)(C)C)C(=O)N[C@@H](Cc1cccc2c1OCO2)[C@@H](O)[C@H](O)[C@H](Cc1cccc2c1OCO2)NC(=O)[C@@H](NC(=O)[C@H](Cc1cccc2ccccc12)CS(=O)(=O)C(C)(C)C)C(C)C` stands 9.40.
